{"source": "paper PMC11272826", "about": "“Metabolism of alcohol ethoxylates (AEs) in rat, hamster, and human hepatocytes and liver S9: a pilot study for metabolic stability, metabolic pathway, and metabolites identification in vitro and in silico” (Archives of Toxicology, 2024)", "key": {"[1]": {"test_system": "female Colworth Wistar rats", "set-up": "method as in Unilever [1978]", "conditions": "14C-labelled, oral, rat, ref Unilever [1978], cited from earlier work"}, "adult males": {"test_system": "adult males", "set-up": "method as in Drotman [1980]", "conditions": "ref Drotman [1980], cited from earlier work; for Amounts in the blood / Radioactivity recovered after 144 h in urine, feces, and air: human males, 50 mg capsule; for Excreted within the first 24 h: radiolabeled, human male volunteers"}, "[2]": {"test": "Metabolic stability in liver S9 fraction (disappearance, half-life, CLint)", "description": "(§1) Calibration curves were generated using an external standard.\nIntrinsic in vitro clearance was calculated as follows: […]"}, "[3]": {"test": "Metabolite profiling by LC-MS in liver S9", "from_the_text": "as §1"}, "human hepatocytes [4]": {"test_system": "human hepatocytes", "test": "Metabolite profiling by LC-MS in hepatocytes", "conditions": "for Number of metabolites detected: human hepatocytes", "protocol": "(§2) The hepatocytes were thawed and re-suspended in Celsis InVitro KHB medium (pH 7.4). […] The samples were collected and stored at − 20 °C for further analysis.\n(§3) The in vitro metabolism of the five individual homologue AEs (i.e. C8EO4, C10EO5, C12EO4, C16EO8, and C18EO3) was analyzed by liquid chromatography–mass spectrometry (LC–MS). The UPLC-Q-Exactive Orbitrap MS system consisted of a Thermo Vanquish Horizon UHPLC with an autosampler, vacuum degasser, photodiode array (PDA) detector (210–500 nm), and column oven coupled to a Q-Exactive Orbitrap Focus mass spectrometer (Thermo Fisher Scientific, Waltham, MA, USA). The analytical column used was a Waters Acquity BEH C8 2.1 × 50 mm with 1.7 particle size (Waters Corp, Milford, MA, USA). The temperature of the column oven was 40 °C, and the injection volume was 4 μl. The aqueous eluent (A) was 0.1% formic acid (B) was acetonitrile. […] The eluent flow rate was 0.5 ml/min and the flow was directed to the MS through a PDA detector. The data acquisition was performed using positive Electrospray Ionization (ESI+) polarity with a capillary voltage of 3000 V. Capillary temperature was 320 °C and auxiliary gas temperature was 500 °C. The mass spectrometer was operated in the data-dependent MS2 mode, which acquires full-scan MS and MS/MS fragment ion data in the same run. Scan was performed with a resolution of 35,000 (full width at half maximum at m/z 200), while an Automated Gain Control target of a million ions, maximum injection time of 100 ms, and a scan range of 100–1000 m/z were used. […] Nitrogen was used as a sheath gas with 50 units, auxiliary gas with 10 units and as a sweep gas with 5 units. Ion chromatograms were extracted from the total ion chromatograms using calculated monoisotopic accurate masses with 5 mDa window. Calibration curves were generated using an external standard. The data were processed with Thermo Xcalibur 4.1.31.9 software."}, "rat hepatocytes": {"test_system": "rat hepatocytes", "test": "Metabolite profiling by LC-MS in hepatocytes", "conditions": "for Number of metabolites detected: rat hepatocytes", "protocol": "as §2, §3"}, "hamster hepatocytes [5]": {"test_system": "hamster hepatocytes", "test": "Metabolite profiling by LC-MS in hepatocytes", "conditions": "for Number of metabolites detected: hamster hepatocytes", "protocol": "as §2, §3"}, "[6]": {"test": "Metabolite profiling by LC-MS in buffer (incubation without cells)", "conditions": "metabolite profile of C16EO8, 10 µM incubation, 120 min, buffer without cells", "protocol": "as §2, §3"}, "[7]": {"test": "Metabolic stability in liver S9 fraction (disappearance, half-life, CLint)", "conditions": "human", "protocol": "The metabolic stability assay was performed in a 48-well plate format (duplicate with cofactors and single without cofactors).\nEach incubation contained test compound (final concentration of 1 or 10 µM), liver S9 (1.5 mg/ml protein content), Cofactors (1 mM NADPH + 1 mM UDPGA + 0.2 mM PAPS), MgCl2 (2 mM), and potassium phosphate buffer (100 mM at pH 7.4). […] The incubation was carried out at 37 °C for 60 min with and without cofactors. […] The samples were collected and stored at − 20 °C for further analysis.\nas §3\n(§4) The first-order rate constants k (min^−1) of the metabolism were obtained from the slope of time versus ln (% remaining) plots using Excel software. All time points (log-scale) were used in fitting the rate constant k based on visual inspection of the curves.\n(§5) The in vitro half-life (t1/2) of the test compound(s) is defined as: t1/2=ln2/k\n(§6) CLint,inc = k*V/(M), where V is the volume of the incubation and M is the number of cells or amount of S9 protein in the incubation."}, "[8]": {"test": "Metabolic stability in cryopreserved hepatocytes (disappearance, half-life, CLint)", "conditions": "human, pooled cryopreserved hepatocytes, pH 7.4", "protocol": "(§7) The metabolic stability assay was performed in a 48-well plate format (duplicate with cells and single without cells).\nas §2\n(§8) The UPLC-Q-Exactive Orbitrap MS system consisted of a Thermo Vanquish Horizon UHPLC with an autosampler, vacuum degasser, photodiode array (PDA) detector (210–500 nm), and column oven coupled to a Q-Exactive Orbitrap Focus mass spectrometer (Thermo Fisher Scientific, Waltham, MA, USA). The analytical column used was a Waters Acquity BEH C8 2.1 × 50 mm with 1.7 particle size (Waters Corp, Milford, MA, USA). The temperature of the column oven was 40 °C, and the injection volume was 4 μl. The aqueous eluent (A) was 0.1% formic acid (B) was acetonitrile. […] The eluent flow rate was 0.5 ml/min and the flow was directed to the MS through a PDA detector. The data acquisition was performed using positive Electrospray Ionization (ESI+) polarity with a capillary voltage of 3000 V. Capillary temperature was 320 °C and auxiliary gas temperature was 500 °C. The mass spectrometer was operated in the data-dependent MS2 mode, which acquires full-scan MS and MS/MS fragment ion data in the same run. Scan was performed with a resolution of 35,000 (full width at half maximum at m/z 200), while an Automated Gain Control target of a million ions, maximum injection time of 100 ms, and a scan range of 100–1000 m/z were used. […] Nitrogen was used as a sheath gas with 50 units, auxiliary gas with 10 units and as a sweep gas with 5 units. Ion chromatograms were extracted from the total ion chromatograms using calculated monoisotopic accurate masses with 5 mDa window. Calibration curves were generated using an external standard. The data were processed with Thermo Xcalibur 4.1.31.9 software.\nas §4, §5, §6"}, "human hepatocytes [9]": {"test_system": "human hepatocytes", "test": "Metabolic stability in cryopreserved hepatocytes (disappearance, half-life, CLint)", "conditions": "human hepatocytes, range over 1 and 10 µM", "protocol": "as §7, §2, §8, §4, §5, §6"}, "[10]": {"test": "Metabolic stability in cryopreserved hepatocytes (disappearance, half-life, CLint)", "conditions": "Sprague Dawley, rat, pooled cryopreserved hepatocytes, pH 7.4", "protocol": "as §7, §2, §8, §4, §5, §6"}, "[11]": {"test": "Metabolic stability in cryopreserved hepatocytes (disappearance, half-life, CLint)", "conditions": "Syrian, hamster, pooled cryopreserved hepatocytes, pH 7.4", "protocol": "as §7, §2, §8, §4, §5, §6"}, "hamster hepatocytes [12]": {"test_system": "hamster hepatocytes", "test": "Metabolic stability in cryopreserved hepatocytes (disappearance, half-life, CLint)", "conditions": "hamster hepatocytes, range over 1 and 10 µM", "protocol": "as §7, §2, §8, §4, §5, §6"}, "[13]": {"conditions": "Sprague-Dawley, rat, pooled liver S9, pH 7.4"}, "[14]": {"conditions": "Syrian, hamster, pooled liver S9, pH 7.4"}, "[15]": {"conditions": "metabolite profile of C16EO8, 10 µM incubation, 60 min, with cofactors"}, "[16]": {"conditions": "metabolite profile of C16EO8, 10 µM incubation, 60 min, without cofactors"}, "[17]": {"conditions": "metabolite profile of C16EO8, 10 µM incubation, 120 min"}, "[18]": {"conditions": "pooled liver S9, pH 7.4, Half-lives t1/2, Liver S9, 1 μM"}, "[19]": {"conditions": "metabolite profile of C18EO3, 10 µM incubation, 60 min"}, "[20]": {"conditions": "metabolite profile of C18EO3, 10 µM incubation, 120 min"}, "[21]": {"conditions": "Sprague-Dawley, rat, s9, pH 7.4"}}}
{"smiles": "CCCCCCCCCCCCOCCOCCOCCOCCOCCOCCO", "note": "[C12EO6]", "values": [{"measurement": "Total recovery in urine, feces, air, and carcass of the administered compound", "setting": "[1]; 4 days", "value": "~100", "unit": "%"}, {"measurement": "14C in air", "setting": "[1]", "value": "about 10%"}, {"measurement": "Amounts in the blood", "setting": "adult males", "value": "≤ 1", "unit": "%"}, {"measurement": "Radioactivity recovered after 144 h in urine, feces, and air", "setting": "adult males", "value": "83–89%"}, {"measurement": "Excreted within the first 24 h", "setting": "adult males", "value": 75, "unit": "%"}]}
{"smiles": "CCCCCCCCCCCCCOCCOCCOCCOCCOCCOCCO", "note": "[C13EO6]", "values": [{"measurement": "Amounts in the blood", "setting": "adult males", "value": "≤ 1", "unit": "%"}, {"measurement": "Radioactivity recovered after 144 h in urine, feces, and air", "setting": "adult males", "value": "83–89%"}, {"measurement": "Excreted within the first 24 h", "setting": "adult males", "value": 75, "unit": "%"}]}
{"smiles": "CCCCCCCCCCCCCCCCOCCOCCOCCOCCOCCOCCOCCOCCO", "note": "[C16EO8]", "values": [{"measurement": "half-life at 1 µM", "setting": "[2]; [13]", "value": 16, "unit": "min"}, {"measurement": "microsomal CLint at 1 µM", "setting": "[2]; [13]", "value": 29.6, "unit": "µL/min/mg"}, {"measurement": "half-life at 1 µM", "setting": "[2]; [14]", "value": 118, "unit": "min"}, {"measurement": "microsomal CLint at 1 µM", "setting": "[2]; [14]", "value": 3.92, "unit": "µL/min/mg"}, {"measurement": "Number of metabolites detected", "setting": "[3]; hamster liver S9", "value": 33}, {"measurement": "Number of metabolites detected", "setting": "[3]; human liver S9", "value": 33}, {"measurement": "Liver S9 with cofactors, % Hamster (percentage of the total peak area)", "setting": "[3]; [15]", "value": 82.7, "unit": "%"}, {"measurement": "Liver S9 with cofactors, % Human (percentage of the total peak area)", "setting": "[3]; [15]", "value": 72.0, "unit": "%"}, {"measurement": "Liver S9 with cofactors, % Rat (percentage of the total peak area)", "setting": "[3]; [15]", "value": 85.8, "unit": "%"}, {"measurement": "Liver S9 without cofactors, % Hamster (percentage of the total peak area)", "setting": "[3]; [16]", "value": 97.4, "unit": "%"}, {"measurement": "Liver S9 without cofactors, % Human (percentage of the total peak area)", "setting": "[3]; [16]", "value": 96.6, "unit": "%"}, {"measurement": "Liver S9 without cofactors, % Rat (percentage of the total peak area)", "setting": "[3]; [16]", "value": 98.7, "unit": "%"}, {"measurement": "Number of metabolites detected", "setting": "[3]; rat liver S9", "value": 33}, {"measurement": "Number of metabolites detected", "setting": "human hepatocytes [4]", "value": 32}, {"measurement": "Hepatocytes, % Human (percentage of the total peak area)", "setting": "human hepatocytes [4]; [17]", "value": 30.3, "unit": "%"}, {"measurement": "Hepatocytes, % Rat (percentage of the total peak area)", "setting": "rat hepatocytes; [17]", "value": 1.0, "unit": "%"}, {"measurement": "Number of metabolites detected", "setting": "rat hepatocytes", "value": 32}, {"measurement": "Number of metabolites detected", "setting": "hamster hepatocytes [5]", "value": 32}, {"measurement": "Hepatocytes, % Hamster (percentage of the total peak area)", "setting": "hamster hepatocytes [5]; [17]", "value": 10.6, "unit": "%"}, {"measurement": "Hepatocytes, % Buffer (percentage of the total peak area)", "setting": "[6]", "value": 29.7, "unit": "%"}, {"measurement": "microsomal CLint at 1 µM", "setting": "[7]; pooled liver S9, pH 7.4", "value": 3.33, "unit": "µL/min/mg"}, {"measurement": "half-life at 1 µM", "setting": "[7]; [18]", "value": 139, "unit": "min"}, {"measurement": "half-life at 1 µM", "setting": "[8]", "value": 39, "unit": "min"}, {"measurement": "half-life at 10 µM", "setting": "[8]", "value": 85, "unit": "min"}, {"measurement": "Initial concentration remaining after 120 min incubation", "setting": "human hepatocytes [9]", "value": "11–36%"}, {"measurement": "half-life at 1 µM", "setting": "[10]", "value": 6.6, "unit": "min"}, {"measurement": "half-life at 10 µM", "setting": "[10]", "value": 9.2, "unit": "min"}, {"measurement": "half-life at 1 µM", "setting": "[11]", "value": 27, "unit": "min"}, {"measurement": "half-life at 10 µM", "setting": "[11]", "value": 30, "unit": "min"}, {"measurement": "Initial concentration remaining after 120 min incubation", "setting": "hamster hepatocytes [12]", "value": "4–5%"}]}
{"smiles": "CCCCCCCCCCCCCCCCCCOCCOCCOCCO", "note": "[C18EO3]", "values": [{"measurement": "half-life at 1 µM", "setting": "[2]; [13]", "value": 32, "unit": "min"}, {"measurement": "microsomal CLint at 1 µM", "setting": "[2]; [13]", "value": 14.6, "unit": "µL/min/mg"}, {"measurement": "half-life at 1 µM", "setting": "[2]; [14]", "value": 29, "unit": "min"}, {"measurement": "microsomal CLint at 1 µM", "setting": "[2]; [14]", "value": 16.2, "unit": "µL/min/mg"}, {"measurement": "Number of metabolites detected", "setting": "[3]; human liver S9", "value": 11}, {"measurement": "Percentage of the total peak area, Liver S9 with cofactors, Hamster", "setting": "[3]; [19]", "value": 79.9, "unit": "%"}, {"measurement": "Percentage of the total peak area, Liver S9 with cofactors, Human", "setting": "[3]; [19]", "value": 58.2, "unit": "%"}, {"measurement": "Percentage of the total peak area, Liver S9 with cofactors, Rat", "setting": "[3]; [19]", "value": 90.3, "unit": "%"}, {"measurement": "Percentage of the total peak area, Liver S9 without cofactors, Hamster", "setting": "[3]; [19]", "value": 100.0, "unit": "%"}, {"measurement": "Percentage of the total peak area, Liver S9 without cofactors, Human", "setting": "[3]; [19]", "value": 100.0, "unit": "%"}, {"measurement": "Percentage of the total peak area, Liver S9 without cofactors, Rat", "setting": "[3]; [19]", "value": 100.0, "unit": "%"}, {"measurement": "Number of metabolites detected", "setting": "human hepatocytes [4]", "value": 9}, {"measurement": "Percentage of the total peak area, Hepatocytes, Human", "setting": "human hepatocytes [4]; [20]", "value": 8.9, "unit": "%"}, {"measurement": "Percentage of the total peak area, Hepatocytes, Rat", "setting": "rat hepatocytes; [20]", "value": 98.3, "unit": "%"}, {"measurement": "Number of metabolites detected", "setting": "rat hepatocytes", "value": 4}, {"measurement": "Number of metabolites detected", "setting": "hamster hepatocytes [5]", "value": 4}, {"measurement": "Percentage of the total peak area, Hepatocytes, Hamster", "setting": "hamster hepatocytes [5]; [20]", "value": 97.5, "unit": "%"}, {"measurement": "microsomal CLint at 1 µM", "setting": "[7]; pooled liver S9, pH 7.4", "value": 15.9, "unit": "µL/min/mg"}, {"measurement": "half-life at 1 µM", "setting": "[7]; [18]", "value": "≥ 29", "unit": "min"}]}
{"smiles": "Cc1ncc2n1-c1ccc(Cl)cc1C(c1ccccc1F)=NC2", "note": "[midazolam, Midazolam, reference compound]", "values": [{"measurement": "half-life at 1 µM", "setting": "[2]; [21]", "value": 11.8, "unit": "min"}, {"measurement": "microsomal CLint at 1 µM", "setting": "[2]; [21]", "value": 39.1, "unit": "µL/min/mg"}, {"measurement": "half-life at 1 µM", "setting": "[2]; Syrian, hamster, s9, pH 7.4", "value": "< 6.3", "unit": "min"}, {"measurement": "microsomal CLint at 1 µM", "setting": "[2]; Syrian, hamster, s9, pH 7.4", "value": "> 75", "unit": "µL/min/mg"}, {"measurement": "half-life at 1 µM", "setting": "[7]; s9, pH 7.4", "value": "< 6.3", "unit": "min"}, {"measurement": "microsomal CLint at 1 µM", "setting": "[7]; s9, pH 7.4", "value": "> 75", "unit": "µL/min/mg"}]}
